Experimental data taken from the supplement of paper PMC10307832.

Columns and labels:
Assay in all cases: relative viability (nuclei count vs DMSO), 5 days (fraction); higher = more cells survive
Ruboxistaurin + Olaparib = compound: CN(C)C[C@@H]1CCn2cc(c3ccccc32)C2=C(C(=O)NC2=O)c2cn(c3ccccc23)CCO1 [Ruboxistaurin] + O=C(c1cc(Cc2n[nH]c(=O)c3ccccc23)ccc1F)N1CCN(C(=O)C2CC2)CC1 [Olaparib] (partner 8 µM)
How it was run: (§1)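 Relative viability divides the nuclei count in treated wells by that in vehicle wells. Lung cancer cell lines were seeded in 1536-well plates, dosed by pin tool the next day, and fixed and stained after 5 days in one step with final 0.05% Triton X-100, 1% formaldehyde and 1 ug/ml Hoechst. Dosing was a single drug or a fixed anchor-drug dose plus five library-drug doses (not always all listed) in √10 steps, and values are medians of duplicate plates imaged at 4×.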

[1] = compound: CN(C)C[C@@H]1CCn2cc(c3ccccc32)C2=C(C(=O)NC2=O)c2cn(c3ccccc23)CCO1 [Ruboxistaurin] + CS(=O)(=O)N1CCN(Cc2cc3nc(-c4cccc5[nH]ncc45)nc(N4CCOCC4)c3s2)CC1 [Pictilisib] (partner 1 µM)
How it was run: as §1

Ruboxistaurin + AZD7762 = compound: CN(C)C[C@@H]1CCn2cc(c3ccccc32)C2=C(C(=O)NC2=O)c2cn(c3ccccc23)CCO1 [Ruboxistaurin] + NC(=O)Nc1cc(-c2cccc(F)c2)sc1C(=O)N[C@H]1CCCNC1 [AZD7762] (partner 0.2 µM)
How it was run: as §1

[2] = compound: CN(C)C[C@@H]1CCn2cc(c3ccccc32)C2=C(C(=O)NC2=O)c2cn(c3ccccc23)CCO1 [Ruboxistaurin] + CC(=O)Nc1cccc(-n2c(=O)n(C3CC3)c(=O)c3c(Nc4ccc(I)cc4F)n(C)c(=O)c(C)c32)c1 [Trametinib] (partner 0.02 µM)
How it was run: as §1

[3] = compound: CN(C)C[C@@H]1CCn2cc(c3ccccc32)C2=C(C(=O)NC2=O)c2cn(c3ccccc23)CCO1 [Ruboxistaurin] + C[C@@H](Oc1cc(-c2cnn(C3CCNCC3)c2)cnc1N)c1c(Cl)ccc(F)c1Cl [Crizotinib] (partner 1 µM)
How it was run: as §1

| Cell Line | relative viability (Ruboxistaurin + Olaparib; first compound 0.08 µM) | relative viability (Ruboxistaurin + Olaparib; first compound 0.8 µM) | relative viability (Ruboxistaurin + Olaparib; first compound 2.53 µM) | relative viability (Ruboxistaurin + Olaparib; first compound 8 µM) | relative viability ([1]; first compound 0.08 µM) | relative viability ([1]; first compound 0.8 µM) | relative viability ([1]; first compound 2.53 µM) | relative viability ([1]; first compound 8 µM) | relative viability (Ruboxistaurin + AZD7762; first compound 0.08 µM) | relative viability (Ruboxistaurin + AZD7762; first compound 0.8 µM) | relative viability (Ruboxistaurin + AZD7762; first compound 2.53 µM) | relative viability (Ruboxistaurin + AZD7762; first compound 8 µM) | relative viability ([2]; first compound 0.08 µM) | relative viability ([2]; first compound 0.8 µM) | relative viability ([2]; first compound 2.53 µM) | relative viability ([2]; first compound 8 µM) | relative viability ([3]; first compound 0.08 µM) | relative viability ([3]; first compound 0.8 µM) | relative viability ([3]; first compound 2.53 µM) | relative viability ([3]; first compound 8 µM) |
| --- | --- | --- | --- | --- | --- | --- | --- | --- | --- | --- | --- | --- | --- | --- | --- | --- | --- | --- | --- | --- |
| EMC-BAC-2 | 0.509 | 0.453 | 0.463 | 0.481 | 0.59 | 0.47 | 0.491 | 0.426 | 1.12 | 1.05 | 1.11 | 0.891 | 0.94 | 0.841 | 0.775 | 0.721 | 0.741 | 0.713 | 0.715 | 0.68 |
| LU99A | 0.27 | 0.259 | 0.253 | 0.218 | 0.338 | 0.275 | 0.242 | 0.21 | 0.385 | 0.312 | 0.349 | 0.289 | 0.492 | 0.509 | 0.508 | 0.472 | 0.507 | 0.506 | 0.503 | 0.506 |
| LK-2 | 0.741 | 0.687 | 0.649 | 0.505 | 0.595 | 0.52 | 0.652 | 0.303 | 0.402 | 0.448 | 0.377 | 0.19 | 0.65 | 0.933 | 0.85 | 0.589 | 0.249 | 0.242 | 0.278 | 0.257 |
| NCI-H3122 | 0.743 | 0.581 | 0.559 | 0.572 | 0.7 | 0.398 | 0.564 | 0.436 | 0.98 | 0.909 | 1.05 | 1.1 | 0.241 | 0.179 | 0.227 | 0.232 | 0.28 | 0.211 | 0.298 | 0.225 |
| NCI-H2347 | 0.636 | 0.614 | 0.581 | 0.451 | 0.739 | 0.772 | 0.714 | 0.519 | 0.989 | 0.73 | 0.797 | 0.606 | 0.306 | 0.293 | 0.256 | 0.167 | 0.725 | 0.581 | 0.568 | 0.651 |
| HCC-827 | 0.655 | 0.647 | 0.695 | 0.624 | 0.993 | 0.866 | 1.08 | 1.27 | 0.26 | 0.199 | 0.239 | 0.201 | 0.555 | 0.499 | 0.517 | 0.533 | 0.977 | 0.907 | 1.01 | 0.96 |
| NCI-H1666 | 0.832 | 0.751 | 0.786 | 0.764 | 0.413 | 0.355 | 0.474 | 0.421 | 0.855 | 0.992 | 0.921 | 0.892 | 0.903 | 0.795 | 0.865 | 0.877 | 0.941 | 0.88 | 1.09 | 0.733 |
